# From US4620014A, “2-furylbutyrolactones and methods for using same” (priority 1983, dated 1986)
# Values joined by “and” are separate entries in the source; they are usually repeats but may differ in a detail not shown here. Equal values may be shown once. Read-outs that look alike come from different tables or passages of the source.
# Legend:
# C57BL/6 mice = conditions: 10 mice per dose
# Procedure: Single dose LD50 in C57BL/6 mice for Cpd. 1 is determined following the method of Spearman and Karber described in Basic Exercises in Immunochemistry, 1979. Briefly, 0.5 ml of each dose is given to each of ten mice. The survivors are counted after 3 days and the LD50 is calculated using the following formula: [formula] where D=fold diferences between doses, R=total number dead, and N=total number of animals tested.
# [1] = test system: spleen lymphocytes from C57BL/6 mice; assay: In vitro lymphocyte stimulation assay, C57BL/6 spleen lymphocytes; type: cell-based, mouse
# Procedure: The purpose of this assay is to challenge lymphocytes in microcultures with one or more polyclonal mitogens at concentrations that will induce mitogenesis within 72 hours of stimulation.
# In the mouse model, spleens are removed from different strains of mice and the spleen cells are teased free and suspended in RPMI-1640 tissue culture medium at a concentration of usually 1×10^7 ml. These cells are dispensed at a concentration of 5.0×10^5 cells per microculture well in a 96 well flat bottom 96 well tissue culture plate. All testing of the compounds of this invention or mitogens are done in replicates of 10. The cells are then treated with PHA, Con-A, specific antigens, or buffer only. If in vitro testing is done, varying concentrations of the compounds of this invention or buffer only are added to the cells as well. After treatment with the mitogens and/or compounds of this invention, the cells are incubated for 72 hours. The response of these cells to mitogens and/or the compounds of this invention is assessed using ^14 C-thymidine labeling on the fourth day at a concentration of 0.01 μCi/well. The labeled cells are harvested using a lymphocyte harvestor and placed onto fibrous paper discs. A scintillation cocktail is added to vials contaning the discs and the results are obtained using a LKB-liquid scintillation counter (Model 1216/Rackbeta II). The data is expressed as a ratio of the cpm of the mitogen stimulated group to the control (non-mitogen) treated group=lymphocyte stimulation index (LSI).
# The lymphocyte stimulation assay may be performed directly on spleen cells obtained from various strains of mice not treated with the compounds of this invention or on lymphocytes obtained from […]. […] Alternatively, the mice may be treated in vivo with the compounds of this invention by intraperitoneal multi-dose schedules, followed by sacrifice and harvesting spleen lymphocytes. These cells are then tested for their response to polyclonal mitogens or specific antigens used to immunize the mice. In this sytem however, no additional compound is added to the in vitro lymphocyte stimulation assay system.
# An in vitro lymphocyte stimulation assay is performed directly on normal spleen lymphocytes removed from five normal C57BL/6 mice, using concentrations of Cpd. […] Following three days of incubation the assay is completed.
# An in vitro lymphocyte stimulation assay was performed using spleen lymphocytes from normal C57BL/6 mice. The lymphocytes were treated with either 1, 5, 10, 50, or 100 μg/well of Cpd. 1 or buffer.
# Cpd. 2 was tested using normal spleen lymphocytes from C57BL/6 mice. A lymphocyte stimulation assay was conducted using either 1, 5, 10, 50, or 100 μg/well […] or just buffer.
# Spleen cells from C57BL/6 mice were treated, in vitro, with the crystallizing reagents, succinic acid and succinimide. Since these compounds are spontaneously released from the molecular complex in solution at a molar ratio of 2 moles of Cpds. 1, 2, or 3 per mole of the crystalline reagent, these reagents were treated in the lymphocyte stimulation assay at proper molar concentrations.
# The compound of example 3, Cpd. 3, was used to treat C57BL/6 spleen lymphocytes in vitro. The lymphocytes were treated with either 1, 5, 10, 50, or 100 μg/well of Cpd. 3 or just buffer and then a lymphocyte stimulation assay was performed.
# [2] = test system: antibody response to keyhole limpet hemocyanin (KLH)
# Excerpt: The effect of the compounds of this invention on the immune response to specific antigens involves immunization of mice with specific anitgens such as bovine serum albumin (BSA) or keyhole limpet hemocyanin (KLH). Following immunization, it is possible to assess the cell-mediated or humoral (antibody) immune response to these antigens by various methods:
# (2) Antibody response to soluble antigens such as BSA or KLH can be quantitated using a micro-ELISA solid phase heterogeneous immunoassay. The assay can be designed to quantitate class specific immunoglobulins (i.e., IgG or IgM).
# The cut-off for the titer was the highest dilution of mouse serum yielding an O.D.≤0.1 when read on the MR-600 Dynatech micro-ELISA reader.
# Mice of the C57BL/6 strain are given i.p. injections of either 50, 100, 200 or 400 mg/kg of Cpd. 1 or buffer for ten days (days 1-10). An antigen, keyhole limpet hemocyanin (KLH), is administered intraperitoneally with Freund's Complete Adjuvant (FCA) on days 1, 7, and 13. Blood samples are taken for assay of the antibody response on days 0, 5, 12, and 17. Spleens are removed, lymphocytes isolated and a lymphocyte stimulation assay with PHA, Con-A or KLH antigen as the mitogens is performed on day 17 of the experiment.
smiles,measurement,setting,value
Cc1ccc(C2(O)C(=O)OC3C(O)COC32O)o1.Cc1ccc(C2(O)C(=O)OC3C(O)COC32O)o1.O=C1CCC(=O)O1 (stereo not drawn) [Cpd. 1],Number Dead on Day 3,"C57BL/6 mice; single i.p. 1,000 mg/kg",0
same,Number Dead on Day 3,"C57BL/6 mice; single i.p. 2,000 mg/kg",0
same,Number Dead on Day 3,"C57BL/6 mice; single i.p. 4,000 mg/kg",7
same,Number Dead on Day 3,"C57BL/6 mice; single i.p. 8,000 mg/kg",10
same,Number Dead on Day 3,"C57BL/6 mice; single i.p. 16,000 mg/kg",10
same,"Lymphocyte Stimulation Index, Con-A",[1]; 1 μg/well in vitro,178 and 123
same,"Lymphocyte Stimulation Index, PHA",[1]; 1 μg/well in vitro,53.8 and 80.4
same,"Lymphocyte Stimulation Index, Con-A",[1]; 5 μg/well in vitro,162
same,"Lymphocyte Stimulation Index, Control (no mitogen)",[1]; 5 μg/well in vitro,1.8
same,"Lymphocyte Stimulation Index, PHA",[1]; 5 μg/well in vitro,157
same,"mitogenesis, PHA and Con-A",[1]; 10 μg/well (Example 12),significant suppression
same,"Lymphocyte Stimulation Index, Con-A",[1]; 50 μg/well in vitro,3.78
same,"Lymphocyte Stimulation Index, Control (no mitogen)",[1]; 50 μg/well in vitro,.20
same,"Lymphocyte Stimulation Index, PHA",[1]; 50 μg/well in vitro,.261
same,"Lymphocyte Stimulation Index, Con-A",[1]; 100 μg/well in vitro,.308
same,"Lymphocyte Stimulation Index, Control (no mitogen)",[1]; 100 μg/well in vitro,.20
same,"Lymphocyte Stimulation Index, PHA",[1]; 100 μg/well in vitro,.292
same,"mitogenesis, PHA and Con-A",[1]; 0.001-1.0 μg/well,significant stimulation of mitogenesis
same,response to PHA and Con-A,[1]; 5 and 10 μg/well,significant increases
same,lymphocyte response to the mitogens,[1]; 50 and 100 μg/well,significant decreases
same,"Lymphocyte Stimulation Index, Con-A",[1]; .001 μg/well in vitro,198
same,"Lymphocyte Stimulation Index, Control (no mitogen)",[1]; .001 μg/well in vitro,3.8
same,"Lymphocyte Stimulation Index, PHA",[1]; .001 μg/well in vitro,80.4
same,"Lymphocyte Stimulation Index, Con-A",[1]; .01 μg/well in vitro,198
same,"Lymphocyte Stimulation Index, Control (no mitogen)",[1]; .01 μg/well in vitro,3.2
same,"Lymphocyte Stimulation Index, PHA",[1]; .01 μg/well in vitro,87.5
same,"Lymphocyte Stimulation Index, Con-A",[1]; .1 μg/well in vitro,198
same,"Lymphocyte Stimulation Index, Control (no mitogen)",[1]; .1 μg/well in vitro,3.2
same,"Lymphocyte Stimulation Index, PHA",[1]; .1 μg/well in vitro,83.1
same,Micro-ELISA Titer,"[2]; 50 mg/kg i.p., day 5",N/R
same,Micro-ELISA Titer,"[2]; 50 mg/kg i.p., prebleed",N/R
same,Micro-ELISA Titer,"[2]; 100 mg/kg i.p., day 5",N/R
same,Micro-ELISA Titer,"[2]; 100 mg/kg i.p., prebleed",N/R
same,Micro-ELISA Titer,"[2]; 200 mg/kg i.p., day 5",N/R
same,Micro-ELISA Titer,"[2]; 200 mg/kg i.p., prebleed",N/R
same,Micro-ELISA Titer,"[2]; 400 mg/kg i.p., day 5",N/R
same,Micro-ELISA Titer,"[2]; 400 mg/kg i.p., prebleed",N/R
same,stimulation of antibody response to KLH over control,"[2]; 200 and 400 mg/kg, day 12",significant stimulation (four-fold increases)
same,increase of antibody response to KLH over untreated antigen-sensitized controls,"[2]; 200 and 400 mg/kg, day 17",eight-fold increase
